From patent US6534063B1, “Methods for treating pervasive development disorders” (priority 1999, dated 2003)
No end group written: not given here.

Experiments:
[1] = tested on: fecal chymotrypsin level; assay: Fecal Chymotrypsin Test after secretin infusion, 16 autistic children (Experiment 1); format: in vivo; conditions: each of 16 autistic children; approximately one week after first secretin infusion, 1 U/kg IV; compared with pre-secretin levels
Procedure: (§1) In this experiment, 16 children diagnosed as having autism were administered the following Fecal Chymotrypsin Test in accordance with an embodiment of the invention. First, approximately 2 grams of stool were collected from each child and placed in a sterile container (although it is to be understood that any quantity of stool may be collected, as 2 grams of stool is not a required amount). Each stool sample was then analyzed using, e.g., an enzymatic photospectrometry analysis as is known by those skilled in the art, to determine the level of fecal chymotrypsin in the stool. Although the enzymatic photospectrophotometry process is preferred, any suitable conventional method may be used for measuring the fecal chymotrypsin levels. The measured chymotrypsin levels of the 16 autistic children are illustrated in FIG. 13.
After determining the chymotrypsin levels of the stools, each of these levels were compared with threshold chymotrypsin levels to determine if the child was likely to benefit from secretin administration. By way of example, with the fecal chymotrypsin tests of the stool samples being performed at 30° C., normal levels of chymotrypsin are deemed to lie above 8.4 U/gram, whereas pathologically abnormal levels are deemed to lie below 4.2 U/gram. […]

[2] = tested on: children diagnosed as having autism; assay: CARS (Childhood Autism Rating Scale) test pre- and post-secretin (Experiment 1); format: in vivo; conditions: 16 autistic children
Procedure: Upon determining that a given child was likely to benefit from secretin administration based on the results of the fecal chymotrypsin test, the child was administered a CARS (Childhood Autism Rating Scale) test prior to being scheduled for secretin infusion.
For each of the 16 autistic children tested, a preferred secretin infusion process according to the present invention was performed involving the administering of 1 U/kg of body weight of Secretin-Ferring for a period of nine months at intervals of approximately 6 weeks. In addition, another CARS test was administered to each of the 16 autistic children 3 weeks post secretin administration to determine if their autism had changed post infusion.
A preferred secretin infusion process includes the initial step of prepping an arm of the candidate child with an IV injection of saline. A test dose of 1 U of Secretin-Ferring is then administered to the child. Approximately one minute after infusion, the child is examined for signs of allergic reaction including rash, increased heart rate, and increase of blood pressure. […] Subsequently, each child receives a 1 U/kg of body weight infusion of Secretin-Ferring approximately every 6 weeks for 9 months. It is to be understood that any commercially available form of secretin may be used.

[3] = tested on: fecal chymotrypsin (FC) levels; assay: Weekly fecal chymotrypsin test during 6 months of secretin, 37 autistic children (Experiment 2); format: in vivo; conditions: 6 months post-secretin administration; of 37 children, all abnormal pre-secretin
Procedure: as §1
After determining the chymotrypsin levels of the stools, each of these levels were compared with threshold chymotrypsin levels to determine if the child was likely to benefit from secretin administration. By way of example, with the fecal chymotrypsin tests of the stool samples being performed at 30° C., normal levels of chymotrypsin are deemed to lie above 8.4 U/gram, whereas pathologically abnormal levels are deemed to lie below 4.2 U/gram. In addition, chymotrypsin levels between 8.4 U/gram and 4.2 U/gram are considered equivocal, and further testing of the individual's fecal chymotrypsin levels over a period of time should be performed.
A preferred secretin infusion process includes the initial step of prepping an arm of the candidate child with an IV injection of saline. A test dose of 1 U of Secretin-Ferring is then administered to the child. […]
In this experiment, 37 autistic children with abnormal fecal chymotrypsin levels were administered secretin over the course of 6 months using the secretin infusion process described above. Their fecal chymotrypsin (FC) levels were measured weekly using the fecal chymotrypsin test described above.

[4] = tested on: children diagnosed with Autism; conditions: secretin given as diagnostic procedure during upper gastrointestinal endoscopy; cited from earlier work

Substance: secretin (HSDGTFTSELSRLRDSARLQRLLQGLV-NH2; ends and bridges not checked; UniProt P63298 33-59, looked up) [gastrointestinal peptide hormone]
- fecal chymotrypsin level post-secretin administration [1]: increased
- CARS component scores (all except fear) ([2]; 3 weeks post infusion): demonstrated improvement
- CARS fear component score ([2]; 3 weeks post infusion): increased
- CARS scores (overall) ([2]; approximately 3 weeks after first secretin administration vs pre-secretin): overall decrease
- # Autistic Children w/Abnormal FC levels [3]: 1
- # Autistic Children w/Equivocal FC levels [3]: 2
- # Autistic Children w/normal FC levels [3]: 34
- symptoms associated with Autism [4]: ameliorating the symptoms associated with Autism
